The subject of this assay is CD2F1 mice, P1798 lymphosarcoma sc, tumor weight T/C. In words: NCI In Vivo Anticancer Drug Screen. Data for tumor model P1798 Lymphosarcoma (subcutaneous) in CD2F1 (CDF1) mice. As to conditions: endpoint: mean tumor weight, higher = larger tumour. Here is the method:
The antitumor activity of compounds was measured in mice bearing transplantable tumors. Survival or tumor size were measured and the results are expressed as the measurement made in the treated group (T) divided by the measurement made in the vehicle treated control group (C). The tumor model used in this assay is P1798 Lymphosarcoma (subcutaneous) in CD2F1 (CDF1) mice

The mark [1] stands for this setting: dose: 0.2 mg/kg/injection, schedule: Q01DX009 (ip), vehicle: saline.
Where [2] appears, read: dose: 0.4 mg/kg/injection, schedule: Q01DX009 (ip), vehicle: saline.
The mark [3] stands for this setting: dose: 0.25 mg/kg/injection, schedule: Q01DX010 (ip), vehicle: saline.
[4] abbreviates: dose: 2.5 mg/kg/injection, schedule: Q01DX010 (ip), vehicle: saline.
Setting [5] is: dose: 5.0 mg/kg/injection, schedule: Q01DX010 (ip), vehicle: saline.
Where [6] appears, read: dose: 10.0 mg/kg/injection, schedule: Q01DX010 (ip), vehicle: saline.
The mark [7] stands for this setting: dose: 20.0 mg/kg/injection, schedule: Q01DX010 (ip), vehicle: saline.
The mark [8] stands for this setting: dose: 0.16 mg/kg/injection, schedule: Q01DX010 (ip), vehicle: saline.
The mark [9] stands for this setting: dose: 0.38 mg/kg/injection, schedule: Q01DX010 (ip), vehicle: saline.
The mark [10] stands for this setting: dose: 0.57 mg/kg/injection, schedule: Q01DX010 (ip), vehicle: saline.
Setting [11] is: dose: 40.0 mg/kg/injection, schedule: Q01DX010 (ip), vehicle: saline.

“And” between values parts separate entries of the source, which are not always exact repeats. Equal values may be shown once.

One may read the T/C as the ratio of treated to control. Consider `CC(C)(O)/C=C/C(=O)[C@](C)(O)[C@H]1[C@H](O)C[C@@]2(C)[C@@H]3CC=C4[C@@H](C[C@H](O)C(=O)C4(C)C)[C@]3(C)C(=O)C[C@]12C`, for which the T/C reads like this: under setting [1], 91 % of control; under setting [2], 81 % of control; (dose: 0.8 mg/kg/injection, schedule: Q01DX009 (ip), vehicle: saline) 95 % of control.
`CSCS(=O)C[C@H](CO)NC(=O)/C=C/c1c(C)[nH]c(=O)[nH]c1=O` (stereo partly specified): the T/C by setting is: (dose: 0.13 mg/kg/injection, schedule: Q01DX010 (ip), vehicle: saline) 94 % of control; under setting [3], 99 % of control; (dose: 0.5 mg/kg/injection, schedule: Q01DX010 (ip), vehicle: saline) 15 % of control.
With `Cn1cnc([N+](=O)[O-])c1Sc1nc(N)nc2nc[nH]c12`, the T/C is, setting by setting: under setting [4], 69 % of control; under setting [5], 75 % of control; under setting [6], 57 % of control; under setting [7], 54 % of control.
As to `CC(=O)OC(C)(C)/C=C/C(=O)[C@](C)(O)[C@H]1[C@H](O)C[C@@]2(C)[C@@H]3CC=C4[C@@H](CC[C@H](O)C4(C)C)[C@]3(CO)C(=O)C[C@]12C`, the T/C is 109 % of control under setting [8], 89 % of control under setting [3], 102 % of control under setting [9] and 109 % of control under setting [10].
As for `Nc1nncs1`, the T/C is, setting by setting: (dose: 1.88 mg/kg/injection, schedule: Q01DX010 (ip), vehicle: saline) 93 % of control; (dose: 3.75 mg/kg/injection, schedule: Q01DX010 (ip), vehicle: saline) 68 % of control; (dose: 7.5 mg/kg/injection, schedule: Q01DX010 (ip), vehicle: saline) 69 % of control; (dose: 15.0 mg/kg/injection, schedule: Q01DX010 (ip), vehicle: saline) 52 % of control and 59 % of control; (dose: 30.0 mg/kg/injection, schedule: Q01DX010 (ip), vehicle: saline) 7 % of control.
Turning to `CC(=O)OCC(=O)[C@@]1(O)CC[C@H]2[C@@H]3CCC4=CC(=O)[C@H](C)C[C@]4(C)[C@H]3[C@@H](O)C[C@@]21C`, the T/C is 111 % of control (dose: 0.78 mg/kg/injection, schedule: Q01DX Z (sc), vehicle: steriod suspending solution); 101 % of control (dose: 1.56 mg/kg/injection, schedule: Q01DX Z (sc), vehicle: steriod suspending solution); 108 % of control (dose: 3.13 mg/kg/injection, schedule: Q01DX Z (sc), vehicle: steriod suspending solution); 101 % of control and 88 % of control (dose: 6.25 mg/kg/injection, schedule: Q01DX Z (sc), vehicle: steriod suspending solution); 61 % of control (dose: 12.5 mg/kg/injection, schedule: Q01DX005 (sc), vehicle: steriod suspending solution); 33 % of control and 50 % of control (dose: 12.5 mg/kg/injection, schedule: Q01DX010 (sc), vehicle: steriod suspending solution). Besides, the T/C is 96 % of control (dose: 12.5 mg/kg/injection, schedule: Q01DX Z (sc), vehicle: steriod suspending solution); 27 % of control (dose: 25.0 mg/kg/injection, schedule: Q01DX005 (sc), vehicle: steriod suspending solution); 73 % of control (dose: 25.0 mg/kg/injection, schedule: Q01DX Z (sc), vehicle: steriod suspending solution); 96 % of control (dose: 25.0 mg/kg/injection, schedule: Q02DX010 (sc), vehicle: steriod suspending solution); 65 % of control (dose: 25.0 mg/kg/injection, schedule: Q03DX004 (sc), vehicle: steriod suspending solution); 9 % of control (dose: 50.0 mg/kg/injection, schedule: Q01DX005 (sc), vehicle: steriod suspending solution). Besides, the T/C runs as follows: (dose: 50.0 mg/kg/injection, schedule: Q01DX Z (sc), vehicle: steriod suspending solution) 76 % of control; (dose: 50.0 mg/kg/injection, schedule: Q02DX010 (sc), vehicle: steriod suspending solution) 100 % of control; (dose: 50.0 mg/kg/injection, schedule: Q03DX004 (sc), vehicle: steriod suspending solution) 17 % of control; (dose: 100.0 mg/kg/injection, schedule: Q01DX005 (sc), vehicle: steriod suspending solution) 4 % of control; (dose: 100.0 mg/kg/injection, schedule: Q02DX010 (sc), vehicle: steriod suspending solution) 108 % of control; (dose: 100.0 mg/kg/injection, schedule: Q03DX004 (sc), vehicle: steriod suspending solution) 2 % of control.
Regarding `O=C1C=Cc2ccc(O)cc2C1=O`, the T/C is 72 % of control (dose: 1.25 mg/kg/injection, schedule: Q01DX010 (ip), vehicle: saline) and 63 % of control under setting [4].
For `NC(CCSCc1ccc(N(CCCl)CCCl)cc1)C(=O)O` (stereo unspecified), the T/C reads like this: (dose: 4.5 mg/kg/injection, schedule: Q01DX010 (ip), vehicle: saline) 108 % of control; (dose: 9.0 mg/kg/injection, schedule: Q01DX010 (ip), vehicle: saline) 86 % of control; (dose: 18.0 mg/kg/injection, schedule: Q01DX010 (ip), vehicle: saline) 98 % of control; (dose: 36.0 mg/kg/injection, schedule: Q01DX010 (ip), vehicle: saline) 93 % of control.
Turning to `COc1ccc2c(c1OC)C(=O)O[C@@H]2[C@H]1c2c(cc3c(c2OC)OCO3)CCN1C`, the T/C reads like this: (dose: 15.6 mg/kg/injection, schedule: Q01DX010 (ip), vehicle: saline) 107 % of control; (dose: 31.3 mg/kg/injection, schedule: Q01DX010 (ip), vehicle: saline) 78 % of control; (dose: 125.0 mg/kg/injection, schedule: Q01DX010 (ip), vehicle: saline) 97 % of control; (dose: 250.0 mg/kg/injection, schedule: Q01DX010 (ip), vehicle: saline) 78 % of control.
On to `CN(C)c1ccc(/C=C/c2ccnc3ccccc23)cc1`, for which the T/C by setting is: under setting [5], 59 % of control; under setting [7], 39 % of control and 46 % of control; under setting [11], 30 % of control and 38 % of control.
Take `O=c1[nH]c(=O)n(C2CC(O)C(CO)O2)cc1F` (stereo unspecified): the T/C by setting is: under setting [5], 73 % of control; under setting [6], 68 % of control and 84 % of control; under setting [7], 47 % of control and 55 % of control; under setting [11], 15 % of control and 28 % of control; (dose: 80.0 mg/kg/injection, schedule: Q01DX010 (ip), vehicle: saline) 1 % of control.
`O=C1C=CC2(CCC23C=CC(=O)O3)O1` (stereo unspecified): the T/C is 74 % of control (dose: 13.0 mg/kg/injection, schedule: Q01DX011 (ip), vehicle: saline); 106 % of control (dose: 20.0 mg/kg/injection, schedule: Q01DX011 (ip), vehicle: saline); 108 % of control and 86 % of control (dose: 45.0 mg/kg/injection, schedule: Q01DX011 (ip), vehicle: saline); 103 % of control (dose: 65.0 mg/kg/injection, schedule: Q01DX011 (ip), vehicle: saline); 89 % of control (dose: 100.0 mg/kg/injection, schedule: Q01DX011 (ip), vehicle: saline).
Take `CC(=O)OC(C)(C)/C=C/C(=O)[C@](C)(O)[C@H]1[C@H](O)C[C@@]2(C)[C@@H]3CC=C4[C@@H](C[C@H](O)C(=O)C4(C)C)[C@]3(C)C(=O)C[C@]12C`: the T/C is, setting by setting: (dose: 0.1 mg/kg/injection, schedule: Q01DX009 (ip), vehicle: saline) 99 % of control; under setting [8], 71 % of control; under setting [1], 68 % of control; (dose: 0.2 mg/kg/injection, schedule: Q01DX011 (ip), vehicle: carboxymethylcellulose (CMC)) 106 % of control; under setting [3], 70 % of control; (dose: 0.3 mg/kg/injection, schedule: Q01DX011 (ip), vehicle: carboxymethylcellulose (CMC)) 56 % of control. Further, the T/C under setting [9] is 70 % of control; the T/C under setting [2] is 77 % of control; the T/C under setting [10] was 62 % of control; the T/C (dose: 0.6 mg/kg/injection, schedule: Q01DX011 (ip), vehicle: carboxymethylcellulose (CMC)) was 82 % of control; the T/C (dose: 0.8 mg/kg/injection, schedule: Q01DX011 (ip), vehicle: carboxymethylcellulose (CMC)) is 11 % of control.

The values are drawn from PubChem BioAssay AID268 (DTP/NCI, 2004).
